Data from patent US8003357B2, “Acidophilic enzymes” (Helmholtz-Zentrum Fuer Infektionsforschung GmbH, priority 2005, dated 2011).

What was measured:
EstFA = EstFA (Ferroplasma acidiphilum, UniProt Q2PCE5); assay: Enantioselectivity of EstFA towards chiral esters and lactones; assay type: biochemical; conditions: for % c / % e.e.: 100 mM citrate buffer pH 2.0, 5 μg EstFA, 10 hours; for E: enantioselectivity
Method: For an estimation of enantioselectivity of EstFA towards chiral esters and lactones, a number of primary and secondary alcohols as well as carboxylic acids and lactones were hydrolysed.
The above substrate specificities were tested in 96-well plates, using 100 mM citrate buffer (pH 2.0) in the presence of 5 μg pure EstFA. For the substrate, the concentrations between 10 nM and 10 mM were chosen. Progress of the reaction was followed by spectrophotometry using p-nitrophenol propionate as an indicator. The reaction was stopped after 10 hours by adjusting the pH to 8.0 by adding sodium hydroxide from a 100 mM stock solution and phenol red (0.8 mM) as a pH indicator. […] Ester hydrolysis of enantiomerically pure esters was measured colorimetrically in 5.0 mM EPPS buffer (N-(2-hydroxyethyl) piperazine-N′-(3′-propanesulfonic acid) at pH 8.0 and phenol red after termination of the reaction.

EstFA (acidic esterase) = assay: Effect of cations and inhibitors on recombinant EstFA activity; assay type: biochemical, Ferroplasma acidiphilum; set-up: substitution of Fe^2+ in EstFA: dose or concentration left out as unconfirmed; conditions: for substitution of Fe^2+ in EstFA: as chloride salts
Method: The enzymes used for the tests were heterologously expressed in E. coli using genomic coding sequences obtained from Ferroplasma acidiphilum.
(§1) The acidic enzymes according to the invention were expressed in E. coli using the genomiccoding sequence for the respective enzyme from Ferroplasma acidiphilum, which are described in detail below. For enzymatic conversions, reaction conditions were in 100 mM sodium acetate buffer, 100 mM citrate buffer, 100 mM HEPES buffer for 2 minutes at 30° C., using p-nitrophenol propionate as the substrate for esterase, starch in the case of glycosidases, and HindIII digested λ DNA for ligase.

LigFA (acidic ligase) = assay: Effect of cations and inhibitors on recombinant LigFA activity; assay type: biochemical, Ferroplasma acidiphilum
Method: as §1, with “The enzymes used for the tests were heterologously expressed in E. coli using genomic coding sequences obtained from Ferroplasma acidiphilum. The” for “The”

[1] = tested on: αGluFA (acidic glucosidase); assay: Effect of cations and inhibitors on recombinant αGluFA activity; assay type: biochemical, Ferroplasma acidiphilum
Method: as §1, with “The enzymes used for the tests were heterologously expressed in E. coli using genomic coding sequences obtained from Ferroplasma acidiphilum. The” for “The”

EstFA, sequence (Q2PCE5 entry or part of it): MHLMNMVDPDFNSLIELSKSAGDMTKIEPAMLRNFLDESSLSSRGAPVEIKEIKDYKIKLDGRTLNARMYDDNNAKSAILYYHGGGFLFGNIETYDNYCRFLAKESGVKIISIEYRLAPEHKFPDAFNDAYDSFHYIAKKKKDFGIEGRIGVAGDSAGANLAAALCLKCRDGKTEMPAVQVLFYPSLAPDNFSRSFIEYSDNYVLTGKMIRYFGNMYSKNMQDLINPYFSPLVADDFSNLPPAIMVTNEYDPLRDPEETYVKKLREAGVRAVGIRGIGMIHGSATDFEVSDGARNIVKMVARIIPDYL

Row | Compound | % c (EstFA) [%] | % e.e. (EstFA) [%] | E (EstFA) | Activity (%) EstFA (EstFA (acidic esterase); additive 10 mM) [%] | Activity (%) EstFA (EstFA (acidic esterase); additive 125 mM) [%] | substitution of Fe^2+ in EstFA (EstFA (acidic esterase)) | Activity (%) LigFA (LigFA (acidic ligase); additive 10 mM) [%] | Activity (%) LigFA (LigFA (acidic ligase); additive 125 mM) [%] | Activity (%) αGluFα ([1]; additive 10 mM) [%] | Activity (%) αGluFα ([1]; additive 125 mM) [%] | effect of complexing Fe^2+ on EstFA activity (EstFA (acidic esterase); added EDTA) | Activity (%) EstFA (EstFA (acidic esterase); additive 50 mM) [%] | Activity (%) LigFA (LigFA (acidic ligase); additive 50 mM) [%] | Activity (%) αGluFα ([1]; additive 50 mM) [%]
1 | CCCC(=O)OC(C)c1ccccc1 (centres unmarked) [1-phenyl ethylbutyrate] | 36.2 | 33.7 | 2.4 |  |  |  |  |  |  |  |  |  |  | 
2 | [Ca+2] [Ca^2+] |  |  |  | 116.3 | 100.8 | could not substitute Fe^2+ | 126.2 | 81.6 | 91.2 | 74.1 |  |  |  | 
3 | [Co+2] [Co^2+] |  |  |  | 55.2 | 68.3 | could not substitute Fe^2+ | 102.5 | 88.7 | 72.0 | 82.8 |  |  |  | 
4 | O=C(O)CN(CCN(CC(=O)O)CC(=O)O)CC(=O)O [EDTA] |  |  |  | 16.0 | 9.5 |  | 17.2 | 7.0 | 10.6 | 9.4 | inhibited the activity of EstFA in a reversible manner |  |  | 
5 | [K+] [K^+] |  |  |  | 108.5 | 115.7 |  | 129.9 | 93.8 | 86.0 | 76.3 |  |  |  | 
6 | [Li+] [Li^+] |  |  |  | 100.2 | 48.0 |  | 101.6 | 107.9 | 107.2 | 69.4 |  |  |  | 
7 | [Mg+2] [Mg^2+] |  |  |  | 106.1 | 116.8 | could not substitute Fe^2+ | 157.0 | 126.8 | 92.2 | 64.7 |  |  |  | 
8 | N [NH4^+] |  |  |  | 85.2 | 97.1 |  | 107.2 | 108.2 | 103.8 | 58.8 |  |  |  | 
9 | [Na+] [Na^+] |  |  |  | 102.8 | 91.2 |  | 71.1 | 100 | 86.3 | 74.0 |  |  |  | 
10 | CCCCCCCCCCCCOS(=O)(=O)[O-].[Na+] [SDS] |  |  |  | 75.2 |  |  | 32.6 |  | 2.4 |  |  | 47.3 | 27.5 | 0.5
11 | [Sr+2] [Sr^2+] |  |  |  | 102.1 | 106.5 |  | 90.7 | 20.2 | 98.0 | 71.3 |  |  |  | 
12 | [Zn+2] [Zn^2+] |  |  |  | 57.8 | 4.6 |  | 5.3 | 10.2 | 1.1 | 16.2 |  |  |  | 
13 | COC(=O)[C@H](C)N [alanine methylester] | 8.71 | 2.5 | 3.8 |  |  |  |  |  |  |  |  |  |  | 
14 | O=C1CCC(CO)O1 (centres unmarked) [dihydro-5-hydroxymethyl-2(3H)-furanone] | 39.3 | 88.6 | 29.7 |  |  |  |  |  |  |  |  |  |  | 
15 | [Mn+2] [manganese] |  |  |  |  |  | could not substitute Fe^2+ |  |  |  |  |  |  |  | 
